# System: NCI-H196 complex spheroid growth, percent test/control
# Experiment: Anticancer human tumor NCI-H196 cell line growth inhibition [AhR];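 further: seven days of drug exposure starting three days after plating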;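 on viability, T/C: 100% = DMSO vehicle control wells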
# Details: for IC50: curve of first compound; for viability, T/C: stronger effect = lower value
# Summary of the method: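 Spheroids combined tumor cells with HUVEC endothelial cells and human MSCs as stroma. AhR antagonists were paired with standard or investigational drugs, each dosed in half-log steps down from near clinical Cmax, or from 10 microM where Cmax was unknown.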
# [1] = second compound 0.1 µM, first compound 0.0316 µM
# [2] = second compound 0.1 µM, first compound 0.1 µM
# [3] = second compound 0.1 µM, first compound 0.316 µM
# [4] = second compound 0.1 µM, first compound 1 µM
# [5] = second compound 0.1 µM, first compound 3.16 µM
# [6] = second compound 0.1 µM, first compound 10 µM
# [7] = second compound 0.316 µM, first compound 0.0316 µM
# [8] = second compound 0.316 µM, first compound 0.1 µM
# [9] = second compound 0.316 µM, first compound 0.316 µM
# [10] = second compound 0.316 µM, first compound 1 µM
# [11] = second compound 0.316 µM, first compound 3.16 µM
# [12] = second compound 0.316 µM, first compound 10 µM
# [13] = second compound 1 µM, first compound 0.0316 µM
# [14] = second compound 1 µM, first compound 0.1 µM
# [15] = second compound 1 µM, first compound 0.316 µM
# [16] = second compound 1 µM, first compound 1 µM
# [17] = second compound 1 µM, first compound 3.16 µM
# [18] = second compound 1 µM, first compound 10 µM
# [19] = second compound 3.16 µM, first compound 0.0316 µM
# [20] = second compound 3.16 µM, first compound 0.1 µM
# [21] = second compound 3.16 µM, first compound 0.316 µM
# [22] = second compound 3.16 µM, first compound 1 µM
# [23] = second compound 3.16 µM, first compound 3.16 µM
# [24] = second compound 3.16 µM, first compound 10 µM
# [25] = second compound 10 µM, first compound 0.0316 µM
# [26] = second compound 10 µM, first compound 0.1 µM
# [27] = second compound 10 µM, first compound 0.316 µM
# [28] = second compound 10 µM, first compound 1 µM
# [29] = second compound 10 µM, first compound 3.16 µM
# [30] = second compound 10 µM, first compound 10 µM
SMILES,IC50 (second compound 0.1 µM) [µM],IC50 (second compound 0.316 µM) [µM],IC50 (second compound 1 µM) [µM],IC50 (second compound 3.16 µM) [µM],IC50 (second compound 10 µM) [µM],"viability, T/C [1] [%]","viability, T/C [2] [%]","viability, T/C [3] [%]","viability, T/C [4] [%]","viability, T/C [5] [%]","viability, T/C [6] [%]","viability, T/C [7] [%]","viability, T/C [8] [%]","viability, T/C [9] [%]","viability, T/C [13] [%]","viability, T/C [14] [%]","viability, T/C [19] [%]","viability, T/C [20] [%]","viability, T/C [25] [%]","viability, T/C [26] [%]",further results
CC1(C)CCC(CN2CCN(c3ccc(C(=O)NS(=O)(=O)c4ccc(NCC5CCOCC5)c([N+](=O)[O-])c4)c(Oc4cnc5[nH]ccc5c4)c3)CC2)=C(c2ccc(Cl)cc2)C1 + CC(CO)NC(=O)c1cc(-c2ccc(Cl)cc2)nn(-c2cnn(C)c2)c1=O,> 10,> 10,> 10,> 10,> 10,99.8,100,98.9,98.2,106,104,100,101,100,99.7,98.8,98.8,101,104,113,"viability, T/C [10]: 101%; viability, T/C [11]: 103%; viability, T/C [12]: 86.9%; viability, T/C [15]: 96.5%; viability, T/C [16]: 109%; viability, T/C [17]: 106%; viability, T/C [18]: 104%; viability, T/C [21]: 108%; viability, T/C [22]: 108%; viability, T/C [23]: 113%; viability, T/C [24]: 99.3%; viability, T/C [27]: 99.9%; viability, T/C [28]: 115%; viability, T/C [29]: 116%; viability, T/C [30]: 96%"
Cn1ncnc1C1c2n[nH]c(=O)c3cc(F)cc(c23)NC1c1ccc(F)cc1 (stereo not given) + CC(CO)NC(=O)c1cc(-c2ccc(Cl)cc2)nn(-c2cnn(C)c2)c1=O,> 0.1,> 0.1,> 0.1,> 0.1,> 0.1,113,103,–,–,–,–,101,105,–,114,109,103,107,108,104,"viability, T/C (second compound 0.1 µM, first compound 0.000316 µM): 111%; viability, T/C (second compound 0.1 µM, first compound 0.001 µM): 107%; viability, T/C (second compound 0.1 µM, first compound 0.00316 µM): 103%; viability, T/C (second compound 0.1 µM, first compound 0.01 µM): 102%; viability, T/C (second compound 0.316 µM, first compound 0.000316 µM): 104%; viability, T/C (second compound 0.316 µM, first compound 0.001 µM): 109%; viability, T/C (second compound 0.316 µM, first compound 0.00316 µM): 102%; viability, T/C (second compound 0.316 µM, first compound 0.01 µM): 99.2%; viability, T/C (second compound 1 µM, first compound 0.000316 µM): 113%; viability, T/C (second compound 1 µM, first compound 0.001 µM): 112%; viability, T/C (second compound 1 µM, first compound 0.00316 µM): 104%; viability, T/C (second compound 1 µM, first compound 0.01 µM): 105%; viability, T/C (second compound 3.16 µM, first compound 0.000316 µM): 106%; viability, T/C (second compound 3.16 µM, first compound 0.001 µM): 119%; viability, T/C (second compound 3.16 µM, first compound 0.00316 µM): 118%; viability, T/C (second compound 3.16 µM, first compound 0.01 µM): 104%; viability, T/C (second compound 10 µM, first compound 0.000316 µM): 122%; viability, T/C (second compound 10 µM, first compound 0.001 µM): 111%; viability, T/C (second compound 10 µM, first compound 0.00316 µM): 110%; viability, T/C (second compound 10 µM, first compound 0.01 µM): 103%"
NS(=O)(=O)OCC1CC(n2ccc3c(NC4CCc5ccccc54)ncnc32)CC1O (stereo not given) + CC(CO)NC(=O)c1cc(-c2ccc(Cl)cc2)nn(-c2cnn(C)c2)c1=O,> 10,> 10,> 10,> 10,> 10,85.4,79.8,67.1,61.3,62.9,60.2,82.8,85.2,68.8,87.2,74.4,81.4,83.7,90.7,96.9,"viability, T/C [10]: 59.2%; viability, T/C [11]: 52.5%; viability, T/C [12]: 55.7%; viability, T/C [15]: 67.6%; viability, T/C [16]: 57.5%; viability, T/C [17]: 61.2%; viability, T/C [18]: 51.4%; viability, T/C [21]: 71.1%; viability, T/C [22]: 56.4%; viability, T/C [23]: 62.9%; viability, T/C [24]: 55.4%; viability, T/C [27]: 83.8%; viability, T/C [28]: 59.2%; viability, T/C [29]: 54%; viability, T/C [30]: 52.4%"

# — PubChem BioAssay AID1919016 (Molecular Pharmacology Branch, DTP, NCI, 2023)
